SMILES strings stand for the structures. Some results are limits rather than exact numbers.

The assay deals with human FXR (NR1H4) (Homo sapiens (Human), UniProt Q96RI1). Description: Human FXR (NR1H4) Assay (Gal4 promoter driven luciferase reporter, Indigo Bioscience kit IB00601). Type of assay: cell-based. The conditions noted are these: for Efficacy (%): efficacy normalized to CDCA set as 100%; for EC50: potency ranges. The text has this:
Assays Human FXR (NR1H4) Assay
Determination of a ligand mediated Gal4 promoter driven transactivation quantify ligand binding mediated activation of FXR. FXR Reporter Assay kit purchased from Indigo Bioscience (Catalogue number: IB00601) to determine the potency and efficacy of compound developed by Enanta that can induce FXR activation. The principle application of this reporter assay system is to quantify functional activity of human FXR. The assay utilizes non-human mammalian cells, CHO (Chinese hamster ovary) cells engineered to express human NR1H4 protein (referred to as FXR). Reporter cells also incorporate the cDNA encoding beetle luciferase which catalyzes the substrates and yields photon emission. Luminescence intensity of the reaction is quantified using a plate-reading luminometer, Envision. Reporter Cells include the luciferase reporter gene functionally linked to an FXR responsive promoter. Thus, quantifying changes in luciferase expression in the treated reporter cells provides a sensitive surrogate measure of the changes in FXR activity. […] The assay is according to the manufacturer's instructions. In brief, the assay was performed in white, 96 well plates using final volume of 100 ul containing cells with different doses of compounds. Retrieve Reporter Cells from −80° C. storage. Perform a rapid thaw of the frozen cells by transferring a 10 ml volume of 37° C. cell recovery medium into the tube of frozen cells. Recap the tube of Reporter Cells and immediately place it in a 37° C. water bath for 5-10 minutes. Retrieve the tube of Reporter Cell Suspension from the water bath. Sanitize the outside surface of the tube with a 70% alcohol swab, and then transfer it into the cell culture hood. Dispense 90 μl of cell suspension into each well of the 96-well Assay Plate. Transfer the plate into 37° C. incubator, allowing the cells adherent to the bottom of the well. Dilute compounds in Dilution Plate (DP), and administrate to cells at Assay Plate (AP). DMSO content of the samples was kept at 0.2%. Cells were incubated for additional 22 hours before luciferase activities were measured. Thirty minutes before intending to quantify FXR activity, remove Detection Substrate and Detection Buffer from the refrigerator and place them in a low-light area so that they may equilibrate to room temperature. Remove the plate's lid and discard all media contents by ejecting it into an appropriate waste container. Gently tap the inverted plate onto a clean absorbent paper towel to remove residual droplets. Cells will remain tightly adhered to well bottoms. Add 100 μl of luciferase detection reagent to each well of the assay plate. Allow the assay plate to rest at room temperature for at least 5 minutes following the addition of LDR. Set the instrument (Envision) to perform a single 5 second “plate shake” prior to reading the first assay well. Read time may be 0.5 second (500 mSec) per well.
For orientation: In a reporter assay the amount or activity of a reporter protein is the signal.

Sequence of human FXR (NR1H4) (Q96RI1 whole entry, the tested form may be a part): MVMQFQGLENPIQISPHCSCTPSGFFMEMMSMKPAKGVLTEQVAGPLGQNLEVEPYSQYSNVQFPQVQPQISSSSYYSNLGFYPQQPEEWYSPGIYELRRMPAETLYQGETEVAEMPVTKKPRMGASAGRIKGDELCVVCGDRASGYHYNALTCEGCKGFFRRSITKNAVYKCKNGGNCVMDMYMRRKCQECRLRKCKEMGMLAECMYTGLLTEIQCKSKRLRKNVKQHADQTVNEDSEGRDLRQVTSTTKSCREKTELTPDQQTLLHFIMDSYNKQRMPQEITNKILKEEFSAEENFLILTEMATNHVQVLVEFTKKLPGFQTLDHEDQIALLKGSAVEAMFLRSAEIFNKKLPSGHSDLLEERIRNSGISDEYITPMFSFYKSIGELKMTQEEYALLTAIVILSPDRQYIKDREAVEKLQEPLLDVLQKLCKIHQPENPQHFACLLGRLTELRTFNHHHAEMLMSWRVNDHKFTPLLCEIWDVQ

Consider `CC[C@H]1[C@@H](O)[C@@H]2[C@H](CC[C@]3(C)[C@@H]([C@H](C)CCNS(=O)(=O)O)CC[C@@H]23)[C@@]2(C)CC[C@@H](O)C[C@@H]12` [Example 131], for which the “Efficacy (%)” value is given as 8% and the 50% effective concentration (EC50) is 1000 to 10000 nM.
For the compound `CC[C@H]1[C@@H](O)[C@@H]2[C@H](CC[C@]3(C)[C@@H]([C@H](C)CCNC(=O)NC(C)C)CC[C@@H]23)[C@@]2(C)CC[C@@H](O)C[C@@H]12` [Example 7], the “Efficacy (%)” value worked out at 259% and the half-maximal effective concentration (EC50) was in the range of 1000 to 10000 nM.
Consider `CC[C@H]1[C@@H](O)[C@@H]2[C@H](CC[C@]3(C)[C@@H]([C@H](C)CCNC(=O)NS(=O)(=O)c4ccc(Cl)cc4)CC[C@@H]23)[C@@]2(C)CC[C@@H](O)C[C@@H]12` [Example 25], for which the “Efficacy (%)” value worked out at 357% and the EC50 is under 100 nM.
For `CC[C@H]1[C@@H](O)[C@@H]2[C@H](CC[C@]3(C)[C@@H]([C@H](C)CCNC(=O)NS(=O)(=O)c4ccc(C(=O)OC)cc4)CC[C@@H]23)[C@@]2(C)CC[C@@H](O)C[C@@H]12` [Example 123], in that order: 271% and 100 to 1000 nM.
As for `CC[C@H]1[C@@H](O)[C@@H]2[C@H](CC[C@]3(C)[C@@H]([C@H](C)CCNC(=O)NS(=O)(=O)N4CC(C)C(C)C4)CC[C@@H]23)[C@@]2(C)CC[C@@H](O)C[C@@H]12` (stereo partly drawn) [Example 99], the “Efficacy (%)” value is reported as 266% and the EC50 was under 100 nM.
As to `CC[C@H]1[C@@H](O)[C@@H]2[C@H](CC[C@]3(C)[C@@H]([C@H](C)CNC(=O)NS(=O)(=O)c4ccccc4)CC[C@@H]23)[C@@]2(C)CC[C@@H](O)C[C@@H]12` [Example 31], the “Efficacy (%)” value is 305% and the EC50 lay in the range of 100 to 1000 nM.
As for `CC[C@H]1[C@@H](O)[C@@H]2[C@H](CC[C@]3(C)[C@@H]([C@H](C)CCNS(=O)(=O)C(C)(C)C(=O)O)CC[C@@H]23)[C@@]2(C)CC[C@@H](O)C[C@@H]12` [Example 138], the “Efficacy (%)” value is given as 2% and the EC50 was in the range of 1000 to 10000 nM.
On the same counts, the results for `CC[C@H]1[C@@H](O)[C@@H]2[C@H](CC[C@]3(C)[C@@H]([C@H](C)CCNC(=O)NS(=O)(=O)NC)CC[C@@H]23)[C@@]2(C)CC[C@@H](O)C[C@@H]12` [Example 125] are 256% and 1000 to 10000 nM.
As to `CC[C@H]1[C@@H](O)[C@@H]2[C@H](CC[C@]3(C)[C@@H]([C@H](C)CCNC(=O)NS(=O)(=O)c4cccc(C)c4)CC[C@@H]23)[C@@]2(C)CC[C@@H](O)C[C@@H]12` [Example 13], the “Efficacy (%)” value is reported as 245% and the EC50 was under 100 nM.
For `CC[C@H]1[C@@H](O)[C@@H]2[C@H](CC[C@]3(C)[C@@H]([C@H](C)CCNC(=O)NS(=O)(=O)c4ccccc4)CC[C@@H]23)[C@@]2(C)CC[C@@H](O)C[C@@H]12` [Example 4], in that order: 342% and under 100 nM.
Turning to `CC[C@H]1[C@@H](O)[C@@H]2[C@H](CC[C@]3(C)[C@@H]([C@H](C)CNC(=O)NS(=O)(=O)c4cccc(C(C)(C)C)c4)CC[C@@H]23)[C@@]2(C)CC[C@@H](O)C[C@@H]12` [Example 115], the “Efficacy (%)” value came to 291% and the concentration for a half-maximal effect (EC50) is 100 to 1000 nM.
On the same counts, the results for `CC[C@H]1[C@@H](O)[C@@H]2[C@H](CC[C@]3(C)[C@@H]([C@H](C)CCNC(=O)NS(=O)(=O)C[C@]45CCC(CC4=O)C5(C)C)CC[C@@H]23)[C@@]2(C)CC[C@@H](O)C[C@@H]12` [Example 60] are 346% and under 100 nM.
On the same counts, the results for `CC[C@H]1[C@@H](O)[C@@H]2[C@H](CC[C@]3(C)[C@@H]([C@H](C)CCNC(=O)NS(=O)(=O)c4ccc(-c5ccccc5)cc4)CC[C@@H]23)[C@@]2(C)CC[C@@H](O)C[C@@H]12` [Example 54] are 273% and under 100 nM.
For `CC[C@H]1[C@@H](O)[C@@H]2[C@H](CC[C@]3(C)[C@@H]([C@H](C)CCNC(=O)NS(=O)(=O)N4CCOCC4)CC[C@@H]23)[C@@]2(C)CC[C@@H](O)C[C@@H]12` [Example 37], in that order: 254% and under 100 nM.
Regarding `CC[C@H]1[C@@H](O)[C@@H]2[C@H](CC[C@]3(C)[C@@H]([C@H](C)CCNC(=O)NS(C)(=O)=O)CC[C@@H]23)[C@@]2(C)CC[C@@H](O)C[C@@H]12` [Example 6], the “Efficacy (%)” value amounted to 269% and the EC50 is 100 to 1000 nM.
`CC[C@H]1[C@@H](O)[C@@H]2[C@H](CC[C@]3(C)C([C@H](C)CCNS(=O)(=O)c4ccccc4)CC[C@@H]23)[C@@]2(C)CC[C@@H](O)C[C@@H]12` (stereo partly drawn) [Example 130]: the “Efficacy (%)” value came out at 146% and the EC50 lay within 1000 to 10000 nM.
For `CC[C@H]1[C@@H](O)[C@@H]2[C@H](CC[C@]3(C)[C@@H]([C@H](C)CCNC(=O)NS(=O)(=O)N(C)C)CC[C@@H]23)[C@@]2(C)CC[C@@H](O)C[C@@H]12` [Example 91], in that order: 399% and under 100 nM.
With `CC[C@H]1[C@@H](O)[C@@H]2[C@H](CC[C@]3(C)[C@@H]([C@H](C)CNC(=O)NS(=O)(=O)c4cccc(N5CCCCC5)c4)CC[C@@H]23)[C@@]2(C)CC[C@@H](O)C[C@@H]12` [Example 121], the “Efficacy (%)” value is on record as 199% and the half-maximal effective concentration (EC50) lay in the range of 100 to 1000 nM.
For `CC[C@H]1[C@@H](O)[C@@H]2[C@H](CC[C@]3(C)[C@@H]([C@H](C)CCNC(=O)NS(=O)(=O)C(C)(C)C)CC[C@@H]23)[C@@]2(C)CC[C@@H](O)C[C@@H]12` [Example 28], in that order: 323% and under 100 nM.
`CC[C@H]1[C@@H](O)[C@@H]2[C@H](CC[C@]3(C)[C@@H]([C@H](C)CCNC(=O)NS(=O)(=O)c4c(F)c(F)c(F)c(F)c4F)CC[C@@H]23)[C@@]2(C)CC[C@@H](O)C[C@@H]12` [Example 92]: the “Efficacy (%)” value is reported as 325% and the EC50 lay within 1000 to 10000 nM.
For `CC[C@H]1[C@@H](O)[C@@H]2[C@H](CC[C@]3(C)[C@@H]([C@H](C)CCNC(=O)NS(=O)(=O)c4ccc5c(c4)OCO5)CC[C@@H]23)[C@@]2(C)CC[C@@H](O)C[C@@H]12` [Example 23], in that order: 488% and under 100 nM.
On the same counts, the results for `CC[C@H]1[C@@H](O)[C@@H]2[C@H](CC[C@]3(C)[C@@H]([C@H](C)CCNC(=O)NS(=O)(=O)c4ccncc4)CC[C@@H]23)[C@@]2(C)CC[C@@H](O)C[C@@H]12` [Example 49] are 236% and 1000 to 10000 nM.
Take `CC[C@H]1[C@@H](O)[C@@H]2[C@H](CC[C@]3(C)[C@@H]([C@H](C)CCNC(=O)NS(N)(=O)=O)CC[C@@H]23)[C@@]2(C)CC[C@@H](O)C[C@@H]12` [Example 124]: the “Efficacy (%)” value came out at 195% and the 50% effective concentration (EC50) is 1000 to 10000 nM.
On the same counts, the results for `CC[C@H]1[C@@H](O)[C@@H]2[C@H](CC[C@]3(C)[C@@H]([C@H](C)CCNC(=O)NS(=O)(=O)N4C[C@@H](C)O[C@H](C)C4)CC[C@@H]23)[C@@]2(C)CC[C@@H](O)C[C@@H]12` [Example 82] are 321% and under 100 nM.

As usually defined, the EC50 is the concentration that produces a half-maximal response. Higher therefore signals weaker potency.
